# Experiments:
# Test in all cases: relative viability (nuclei count vs DMSO), 5 days (fraction); higher = more cells survive
# [1] = compound: Nc1nc2[nH]cc(CCc3ccc(C(=O)N[C@@H](CCC(=O)O)C(=O)O)cc3)c2c(=O)[nH]1 [Pemetrexed] + O=C(c1cc(Cc2n[nH]c(=O)c3ccccc23)ccc1F)N1CCN(C(=O)C2CC2)CC1 [Olaparib] (partner 8 µM)
# Outline: (§1)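 One day after seeding in 1536-well plates, lung cancer cell lines were dosed by pin tool. Dosing was either single-drug or a fixed anchor-drug dose plus five library-drug doses (not always all listed) in √10 steps. After 5 days, nuclei were stained in one fix-and-stain step and counted on 4× images, and relative viability is the nuclei count of treated wells over that of vehicle wells, given as the median of duplicate plates.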
# [2] = compound: CC[C@H](Nc1ncnc2[nH]cnc12)c1nc2cccc(F)c2c(=O)n1-c1ccccc1 [Idelalisib] + Cc1nc(Nc2ncc(C(=O)Nc3c(C)cccc3Cl)s2)cc(N2CCN(CCO)CC2)n1 [Dasatinib] (partner 0.075 µM)
# Outline: as §1
# [3] = compound: Nc1nc2[nH]cc(CCc3ccc(C(=O)N[C@@H](CCC(=O)O)C(=O)O)cc3)c2c(=O)[nH]1 [Pemetrexed] + Nc1ncn([C@H]2C[C@H](O)[C@@H](CO)O2)c(=O)n1 [Decitabine] (partner 2 µM)
# Outline: as §1
# [4] = compound: Nc1nc2[nH]cc(CCc3ccc(C(=O)N[C@@H](CCC(=O)O)C(=O)O)cc3)c2c(=O)[nH]1 [Pemetrexed] + CC1(C)CCC(c2ccc(Cl)cc2)=C(CN2CCN(c3ccc(C(=O)NS(=O)(=O)c4ccc(N[C@H](CCN5CCOCC5)CSc5ccccc5)c(S(=O)(=O)C(F)(F)F)c4)cc3)CC2)C1 [Navitoclax] (partner 0.5 µM)
# Outline: as §1
Cell Line,relative viability ([1]; first compound 0.002 µM),relative viability ([1]; first compound 0.006325 µM),relative viability ([1]; first compound 0.02 µM),relative viability ([1]; first compound 0.06325 µM),relative viability ([1]; first compound 0.2 µM),relative viability ([2]; first compound 0.04 µM),relative viability ([2]; first compound 0.1265 µM),relative viability ([2]; first compound 0.4 µM),relative viability ([2]; first compound 1.265 µM),relative viability ([2]; first compound 4 µM),relative viability ([3]; first compound 0.002 µM),relative viability ([3]; first compound 0.006325 µM),relative viability ([3]; first compound 0.02 µM),relative viability ([3]; first compound 0.06325 µM),relative viability ([3]; first compound 0.2 µM),relative viability ([4]; first compound 0.002 µM),relative viability ([4]; first compound 0.006325 µM),relative viability ([4]; first compound 0.02 µM),relative viability ([4]; first compound 0.06325 µM),relative viability ([4]; first compound 0.2 µM)
BEN,1.07,1.01,1.05,0.97,0.891,0.305,0.318,0.32,0.364,0.31,0.657,0.767,0.813,0.668,0.719,0.0683,0.0717,0.0575,0.0762,0.0946
COR-L23,0.28,0.406,0.36,0.253,0.152,0.442,0.42,0.388,0.455,0.417,0.419,0.465,0.554,0.225,0.188,0.991,0.964,1.04,0.323,0.194
COR-L 105,0.706,0.74,0.746,0.738,0.662,0.363,0.379,0.31,0.354,0.334,0.672,0.692,0.699,0.633,0.685,0.674,0.686,0.878,0.69,0.707
ChaGo-K-1,0.483,0.423,0.464,0.383,0.259,0.548,0.516,0.534,0.563,0.585,0.538,0.531,0.552,0.531,0.368,1.03,0.969,0.914,0.296,0.306
EKVX,0.794,0.796,0.884,0.883,0.499,0.492,0.549,0.348,0.436,0.341,0.405,0.257,0.368,0.316,0.325,0.913,0.904,0.961,0.928,0.627
EMC-BAC-2,0.455,0.458,0.5,0.493,0.497,0.319,0.337,0.283,0.321,0.346,0.965,0.882,1,0.971,0.64,1.14,1.09,1.21,1.2,1.09
EPLC-272H,0.592,0.835,1.01,0.564,0.271,0.277,0.293,0.293,0.271,0.291,0.348,0.377,0.413,0.33,0.296,1.24,1.05,1.19,1.12,1.05
H3255,0.563,0.602,0.586,0.573,0.519,0.442,0.342,0.386,0.391,0.312,0.494,0.581,0.681,0.535,0.454,0.325,0.508,0.537,0.526,0.464
HARA,0.758,0.859,0.834,0.606,0.182,0.279,0.235,0.174,0.228,0.238,0.486,0.457,0.659,0.437,0.234,1,1.1,1.17,1.08,0.381
HCC-15,0.644,0.724,0.804,0.601,0.353,0.614,0.591,0.52,0.674,0.491,0.483,0.604,0.684,0.406,0.191,0.701,0.668,0.702,0.588,0.482
HCC-78,,0.792,0.662,0.29,0.233,0.407,0.378,0.311,0.361,0.41,,0.685,0.777,0.324,0.307,,0.646,0.547,0.242,0.207
HCC-366,0.345,0.432,0.385,0.36,0.332,0.679,0.705,0.433,0.62,0.601,0.331,0.387,0.346,0.329,0.211,1.07,0.95,0.974,1.02,0.963
HCC-827,0.666,0.614,0.618,0.633,0.416,0.31,0.318,0.357,0.285,0.177,0.264,0.341,0.409,0.214,0.305,0.926,0.964,1.13,1.02,0.908
HOP-62,,0.443,0.55,0.391,0.387,0.636,0.714,0.547,0.581,0.526,0.198,0.262,0.249,0.204,0.2,1.03,1.01,1.19,0.906,0.894
LC-2-ad,0.712,0.711,0.683,0.612,0.312,0.583,0.48,0.424,0.626,0.519,0.807,0.771,0.779,0.755,0.316,0.304,0.437,0.363,0.159,0.162
LCLC-97TM1,0.442,0.327,0.457,0.426,0.411,0.938,0.846,0.807,0.946,0.88,0.241,0.245,0.203,0.233,0.209,0.393,0.279,0.674,0.375,0.394

Cell Line,relative viability ([1]; first compound 0.002 µM),relative viability ([1]; first compound 0.006325 µM),relative viability ([1]; first compound 0.02 µM),relative viability ([1]; first compound 0.06325 µM),relative viability ([1]; first compound 0.2 µM),relative viability ([2]; first compound 0.04 µM),relative viability ([2]; first compound 0.1265 µM),relative viability ([2]; first compound 0.4 µM),relative viability ([2]; first compound 1.265 µM),relative viability ([2]; first compound 4 µM),relative viability ([3]; first compound 0.002 µM),relative viability ([3]; first compound 0.006325 µM),relative viability ([3]; first compound 0.02 µM),relative viability ([3]; first compound 0.06325 µM),relative viability ([3]; first compound 0.2 µM),relative viability ([4]; first compound 0.002 µM),relative viability ([4]; first compound 0.006325 µM),relative viability ([4]; first compound 0.02 µM),relative viability ([4]; first compound 0.06325 µM),relative viability ([4]; first compound 0.2 µM)
LK-2,0.761,0.817,0.745,0.519,0.622,0.277,0.294,,0.273,0.283,0.277,0.358,0.259,0.251,0.263,0.835,0.844,0.823,0.8,0.592
LOU-NH91,0.864,0.886,0.93,0.819,0.455,0.599,0.561,0.482,0.42,0.542,0.811,0.78,0.798,0.66,0.578,0.629,0.727,0.708,0.431,0.416
LU99A,0.246,0.245,0.302,0.28,0.244,0.528,0.617,0.428,0.61,0.646,0.802,0.753,0.947,0.865,0.887,0.73,0.75,0.774,0.87,0.748
LXF-289,1.07,1.04,1.1,1.03,0.976,0.19,0.218,0.135,0.202,0.195,0.363,0.393,0.38,0.403,0.404,0.881,1,0.994,0.993,0.929
NCI-H23,0.318,0.335,0.331,0.32,0.319,0.808,0.828,0.552,,0.825,0.287,0.307,0.322,0.325,0.318,0.808,0.756,1.07,0.788,0.858
NCI-H322M,0.682,0.763,0.752,0.84,0.736,0.284,0.246,0.248,0.251,0.263,0.722,0.642,0.655,0.794,0.612,1.16,1.25,1.17,1.15,1.14
NCI-H441,0.458,0.534,0.56,0.567,0.252,0.681,0.687,0.585,0.639,0.467,0.2,0.308,0.244,0.232,0.215,,0.457,0.605,0.6,0.48
NCI-H460,0.237,0.35,0.484,0.437,0.116,0.571,0.535,0.405,0.5,0.428,,0.468,0.507,0.323,0.0945,0.945,1.1,1.33,0.388,0.0669
NCI-H520,0.282,0.385,0.356,0.335,0.319,0.201,0.158,0.126,0.209,0.147,0.504,0.453,0.538,0.479,0.494,0.963,1.08,1.25,1.11,1.08
NCI-H596,0.747,0.73,0.761,0.668,0.514,0.586,0.631,0.493,0.575,0.549,0.996,1.03,0.972,0.839,0.553,0.98,0.811,0.828,0.898,0.419
NCI-H647,0.585,0.67,0.765,0.465,0.163,0.194,0.203,,0.173,0.127,0.263,0.366,0.515,0.39,0.233,1.13,0.987,1.15,0.954,0.308
NCI-H727,0.617,0.654,0.692,0.795,0.689,0.461,0.397,,0.353,0.386,0.922,0.796,0.835,0.792,0.865,0.422,0.474,0.583,0.428,0.527
NCI-H838,0.755,0.75,0.837,0.471,0.216,0.248,0.307,0.219,0.283,0.345,0.475,0.45,0.516,0.365,0.274,1.17,1.12,1.33,0.893,0.361
NCI-H1355,0.676,0.709,0.731,0.754,0.691,0.631,0.791,0.504,0.561,0.518,0.33,0.354,0.336,0.332,0.355,0.86,0.885,0.951,0.942,0.872
NCI-H1395,0.427,0.421,0.5,0.41,0.426,0.417,0.369,0.375,0.385,0.366,0.681,0.71,0.85,0.697,0.74,1.06,1.14,1.24,1.11,1.11
NCI-H1437,0.619,0.625,0.656,0.54,0.385,0.378,0.46,0.307,0.453,0.478,0.528,0.577,0.555,0.443,0.359,0.988,1.05,1.02,0.575,0.291

# Reference: the supplement of paper PMC10307832
